Our source for the IC50 values is patent publication US8134015B2, “Compound inhibiting in vivo phosphorous transport and medicine containing the same” (Kyowa Hakko Kirin Co., Ltd., priority 2003, dated 2012).

The target in assay [1] is T1, rat NaPi-2b (Rattus norvegicus, UniProt Q9JJ09).
T1 construct: expressed in transfected cells; host or cells: Xenopus oocytes injected with cRNA
T1 sequence (Q9JJ09 1-695): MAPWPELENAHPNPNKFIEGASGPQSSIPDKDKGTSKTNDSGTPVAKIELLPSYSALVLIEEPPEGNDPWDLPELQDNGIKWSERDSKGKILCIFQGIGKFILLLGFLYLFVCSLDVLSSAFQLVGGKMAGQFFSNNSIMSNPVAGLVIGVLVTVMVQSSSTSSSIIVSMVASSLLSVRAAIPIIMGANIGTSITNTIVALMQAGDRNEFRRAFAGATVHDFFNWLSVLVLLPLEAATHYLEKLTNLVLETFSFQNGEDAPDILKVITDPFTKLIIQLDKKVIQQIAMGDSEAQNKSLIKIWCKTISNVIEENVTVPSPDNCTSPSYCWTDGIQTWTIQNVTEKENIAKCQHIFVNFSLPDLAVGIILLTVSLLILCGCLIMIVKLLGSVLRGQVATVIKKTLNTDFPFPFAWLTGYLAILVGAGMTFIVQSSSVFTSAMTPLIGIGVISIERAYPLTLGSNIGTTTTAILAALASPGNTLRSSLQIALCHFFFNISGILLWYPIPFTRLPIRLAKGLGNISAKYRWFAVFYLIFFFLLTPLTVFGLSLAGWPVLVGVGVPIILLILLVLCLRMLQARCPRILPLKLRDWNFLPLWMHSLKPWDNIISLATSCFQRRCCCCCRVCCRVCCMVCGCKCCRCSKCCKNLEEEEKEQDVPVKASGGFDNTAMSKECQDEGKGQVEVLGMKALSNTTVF
The assay is described as follows: Sodium-dependent phosphate uptake of Xenopus oocytes which expressed NaPi-2b (32P). As to conditions: Xenopus oocytes expressing rat NaPi-2b, 32P radioactive phosphorus; read-out: IC50 (phosphate uptake inhibitory activity). Type of assay: cell-based. The procedure, abridged:
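Read-out is 32P phosphate uptake into Xenopus oocytes expressing rat intestinal NaPi-2b (cRNA injection, 2-day culture). Inhibition at 300 μM and 100 μM was derived from a single inhibition curve and given as percent.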

The target in assay [2] is T2, human NaPi-2a (Homo sapiens, UniProt Q06495).
T2 construct: expressed in transfected cells
T2 sequence (Q06495 1-639): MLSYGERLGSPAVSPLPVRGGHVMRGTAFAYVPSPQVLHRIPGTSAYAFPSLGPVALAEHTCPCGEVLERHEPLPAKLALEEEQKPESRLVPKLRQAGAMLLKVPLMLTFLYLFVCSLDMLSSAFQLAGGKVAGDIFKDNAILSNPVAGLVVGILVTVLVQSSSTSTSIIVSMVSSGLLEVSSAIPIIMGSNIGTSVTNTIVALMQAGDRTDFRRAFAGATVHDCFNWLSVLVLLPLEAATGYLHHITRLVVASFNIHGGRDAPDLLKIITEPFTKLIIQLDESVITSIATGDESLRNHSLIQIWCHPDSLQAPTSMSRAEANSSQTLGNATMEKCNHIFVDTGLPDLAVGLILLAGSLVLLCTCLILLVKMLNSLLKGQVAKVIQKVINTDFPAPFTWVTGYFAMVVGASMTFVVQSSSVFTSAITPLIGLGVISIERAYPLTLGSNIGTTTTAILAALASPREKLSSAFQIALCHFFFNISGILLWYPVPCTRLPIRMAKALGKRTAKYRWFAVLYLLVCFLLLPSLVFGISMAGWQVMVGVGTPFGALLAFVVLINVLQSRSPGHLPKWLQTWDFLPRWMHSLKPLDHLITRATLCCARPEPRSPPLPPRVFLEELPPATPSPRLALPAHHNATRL
The assay can be described thus: Sodium-dependent phosphate uptake of Xenopus oocytes which expressed NaPi-2a (32P). Format: cell-based. As to conditions: phosphate uptake, Xenopus oocytes expressing human NaPi-2a; five concentration levels. From the text:
Experiment of Sodium-Dependent Phosphate Uptake of Xenopus oocytes which Expressed NaPi-2a
In the test, a group with the addition of choline chloride (Choline Cl) was used as a negative control for nonspecific uptake, and PFA (phosphonoformic acid) was used as a positive control for phosphate transport inhibition.

`CCN(CC)CCNCc1cccc(C(=O)Nc2sc3c(c2C(=O)N/N=C/c2ccc(F)cc2)CCC3)c1` [Compound 813, 3-[(2-Diethylamino-ethylamino)-methyl]-N-[3-(4-fluoro-benzylidene-hydrazinocarbonyl)-5,6-dihydro-4H-cyclopenta[b]thiophen-2-yl]-benzamide]: the results for the IC50 in assay [1] and in assay [2] were 6.25 µM and 35.6 µM, respectively.
For `CCN(CC)CCNCc1cccc(C(=O)Nc2sc3c(c2C(=O)N/N=C/c2ccc(Cl)c(C(F)(F)F)c2)CCC3)c1` [Compound 814, N-[3-(4-Chloro-3-trifluoromethyl-benzylidene-hydrazinocarbonyl)-5,6-dihydro-4H-cyclopenta[b]thiophen-2-yl]-3-[(2-diethylamino-ethylamino)-methyl]-benzamide], in that order: less than 3 µM and 18.3 µM.
In the case of `O=C(Nc1sc2c(c1C(=O)N/N=C/c1ccc(F)cc1)CCC2)c1cccc(CN2CCC(CO)CC2)c1` [Compound 818, N-[3-(4-Fluoro-benzylidene-hydrazinocarbonyl)-5,6-dihydro-4H-cyclopenta[b]thiophen-2-yl]-3-(4-hydroxymethyl-piperidin-1-ylmethyl)-benzamide], the IC50 in assay [1] came out at 7.38 µM; in assay [2], 31.4 µM.
On to `Cc1ccc(/C=N/NC(=O)c2c(C)csc2NC(=O)c2cccc(CN(C)C)c2)cc1C` [Compound 822, 3-Dimethylaminomethyl-N-[3-(3,4-dimethyl-benzylidene-hydrazinocarbonyl)-4-methyl-thiophen-2-yl]-benzamide], for which the 50% inhibitory concentration (IC50) is 5.9 µM in assay [1] and 18 µM in assay [2].
For `Cc1csc(NC(=O)c2cccc(CN(C)C)c2)c1C(=O)N/N=C/c1ccc(Cl)c(C(F)(F)F)c1` [Compound 824, N-[3-(4-Chloro-3-trifluoromethyl-benzylidene-hydrazinocarbonyl)-4-methyl-thiophen-2-yl]-3-dimethylaminomethyl-benzamide] the same measures were 3.22 µM and 8.19 µM.
As for `Cc1ccc(/C=N/NC(=O)c2c(C)csc2NC(=O)c2cccc(CN3CCN(c4ncccn4)CC3)c2)cc1` [Compound 827, N-[4-Methyl-3-(4-methyl-benzylidene-hydrazinocarbonyl)-thiophen-2-yl]-3-(4-pyrimidin-2-yl-piperazin-1-ylmethyl)-benzamide], the IC50 in assay [1] worked out at 3.5 µM; in assay [2], 24.4 µM.
For the compound `Cc1csc(NC(=O)c2cccc(CN3CCN(c4ncccn4)CC3)c2)c1C(=O)N/N=C/c1ccc(F)cc1` [Compound 828, N-[3-(4-Fluoro-benzylidene-hydrazinocarbonyl)-4-methyl-thiophen-2-yl]-3-(4-pyrimidin-2-yl-piperazin-1-ylmethyl)-benzamide], the IC50 came out at 9.33 µM in assay [1] and 10 µM in assay [2].
Turning to `Cc1csc(NC(=O)c2cccc(CN3CCN(c4ncccn4)CC3)c2)c1C(=O)N/N=C/c1cccc(F)c1` [Compound 829, N-[3-(3-Fluoro-benzylidene-hydrazinocarbonyl)-4-methyl-thiophen-2-yl]-3-(4-pyrimidin-2-yl-piperazin-1-ylmethyl)-benzamide], the IC50 in assay [1] is 3.91 µM; in assay [2], less than 3 µM.
For `Cc1csc(NC(=O)c2cccc(CN3CCN(c4ncccn4)CC3)c2)c1C(=O)N/N=C/c1ccc(Cl)c(C(F)(F)F)c1` [Compound 830, N-[3-(4-Chloro-3-trifluoromethyl-benzylidene-hydrazinocarbonyl)-4-methyl-thiophen-2-yl]-3-(4-pyrimidin-2-yl-piperazin-1-ylmethyl)-benzamide], in that order: 4.81 µM and 10.7 µM.
For `COc1ccc(/C=N/NC(=O)c2c(C)csc2NC(=O)c2cccc(CN3CCN(c4ncccn4)CC3)c2)cc1` [Compound 831, N-[3-(4-Methoxy-benzylidene-hydrazinocarbonyl)-4-methyl-thiophen-2-yl]-3-(4-pyrimidin-2-yl-piperazin-1-ylmethyl)-benzamide] the same measures were 3.88 µM and 28.8 µM.
For `Cc1ccc(/C=N/NC(=O)c2c(C)csc2NC(=O)c2cccc(CN3CCC4(CC3)OCCO4)c2)cc1C` [Compound 832, N-[3-(3,4-Dimethyl-benzylidene-hydrazinocarbonyl)-4-methyl-thiophen-2-yl]-3-(1,4-dioxa-8-aza-spiro[4,5]dec-8-ylmethyl)-benzamide], in that order: 4.97 µM and 6.4 µM.
For `Cc1ccc(/C=N/NC(=O)c2c(C)csc2NC(=O)c2cccc(CN3CCC4(CC3)OCCO4)c2)cc1` [Compound 833, 3-(1,4-Dioxa-8-aza-spiro[4,5]dec-8-ylmethyl]-N-[4-methyl-3-(4-methyl-benzylidene-hydrazinocarbonyl)-thiophen-2-yl]-benzamide], the half-inhibitory concentration (IC50) in assay [1] was found to be 7.89 µM; in assay [2], 38.1 µM.
For `Cc1csc(NC(=O)c2cccc(CN3CCC4(CC3)OCCO4)c2)c1C(=O)N/N=C/c1ccc(F)cc1` [Compound 834, 3-(1,4-Dioxa-8-aza-spiro[4,5]dec-8-ylmethyl]-N-[3-(4-fluoro-benzylidene-hydrazinocarbonyl)-4-methyl-thiophen-2-yl]-benzamide] the same measures were 19 µM and 52.1 µM.
For `Cc1csc(NC(=O)c2cccc(CN3CCC4(CC3)OCCO4)c2)c1C(=O)N/N=C/c1cccc(F)c1` [Compound 835, 3-(1,4-Dioxa-8-aza-spiro[4,5]dec-8-ylmethyl]-N-[3-(3-fluoro-benzylidene-hydrazinocarbonyl)-4-methyl-thiophen-2-yl]-benzamide] the same measures were 6.46 µM and 11 µM.
For `Cc1csc(NC(=O)c2cccc(CN3CCC4(CC3)OCCO4)c2)c1C(=O)N/N=C/c1ccc(Cl)c(C(F)(F)F)c1` [Compound 836, N-[3-(4-Chloro-3-trifluoromethyl-benzylidene-hydrazinocarbonyl)-4-methyl-thiophen-2-yl]-3-(1,4-dioxa-8-aza-spiro[4,5]dec-8-ylmethyl]-benzamide] the same measures were 0.77 µM and 10.2 µM.
Consider `CCN(CC)CCN(CCN(CC)CC)Cc1cccc(C(=O)Nc2scc(C)c2C(=O)N/N=C/c2ccc(C)c(C)c2)c1` [Compound 838, 3-{[Bis-(2-diethylamino-ethyl)-amino]-methyl}-N-[3-(3,4-dimethyl-benzylidene-hydrazinocarbonyl)-4-methyl-thiophen-2-yl]-benzamide], for which the IC50 in assay [1] is less than 3 µM; in assay [2], 10.2 µM.
As for `CCN(CC)CCN(CCN(CC)CC)Cc1cccc(C(=O)Nc2scc(C)c2C(=O)N/N=C/c2ccc(C)cc2)c1` [Compound 839, 3-{[Bis-(2-diethylamino-ethyl)-amino]-methyl}-N-[4-methyl-3-(4-methyl-benzylidene-hydrazinocarbonyl)-thiophen-2-yl]-benzamide], the IC50 amounted to 5.04 µM in assay [1] and 23.2 µM in assay [2].
For `CCN(CC)CCN(CCN(CC)CC)Cc1cccc(C(=O)Nc2scc(C)c2C(=O)N/N=C/c2ccc(F)cc2)c1` [Compound 840, 3-{[Bis-(2-diethylamino-ethyl)-amino]-methyl}-N-[3-(4-fluoro-benzylidene-hydrazinocarbonyl)-4-methyl-thiophen-2-yl]-benzamide] the same measures were 6.95 µM and 34.1 µM.
With `CCN(CC)CCN(CCN(CC)CC)Cc1cccc(C(=O)Nc2scc(C)c2C(=O)N/N=C/c2cccc(F)c2)c1` [Compound 841, 3-{[Bis-(2-diethylamino-ethyl)-amino]-methyl}-N-[3-(3-fluoro-benzylidene-hydrazinocarbonyl)-4-methyl-thiophen-2-yl]-benzamide], the IC50 in assay [1] is less than 3 µM; in assay [2], 19.9 µM.

In general, IC50 refers to the concentration needed to halve the response being measured.
